Experimental data published in patent US20090227781A1, “Glycolipid Derivative and Drug Containing the Same as Active Component” (priority 2005, published 2009).

What was measured:
[1] = tested on: experimental autoimmune encephalomyelitis (EAE); conditions: Nonpatent Documents 2 to 4, Patent Document 2; cited from earlier work
[2] = tested on: collagen induced arthritis (CIA); conditions: Nonpatent Documents 2 to 4, Patent Document 2; cited from earlier work
mononuclear cells = assay: Effect on liver mononuclear cells of Jα18 gene-deficient mice with no NKT cells; format: cell-based
Method: (§1) Mononuclear cells were separated from the livers of C57BL/6J mice (8 weeks old, female) and incubated with the compound for 48 hours. […] The reaction by α-GC and slight intake of tritium and the slight amount of cytokine production observed for the compound at 30 ng/ml were not seen in Jα18 gene-deficient mice with no NKT cells, and, therefore, these reactions were confirmed to be NKT cell-dependent reactions (see FIG. 4).

NKT cells = assay: Effect of compound on NKT cells: liver mononuclear cells incubated with compound for 48 hours; format: cell-based, C57BL/6J mice; conditions: 48 hours incubation; FIG. 4
Method: as §1

Row | Structure (SMILES) | effectiveness in EAE, animal model of multiple sclerosis [1] | effectiveness in CIA, animal model of rheumatoid arthritis [2] | reaction (tritium intake, cytokine production) in mice with no NKT cells (mononuclear cells) | IFN-γ production (ELISA, supernatant) (NKT cells) | IL-4 production (ELISA, supernatant) (NKT cells) | cell proliferation (intake of tritium thymidine) (NKT cells)
1 | CCCCCCCCCCCCCCCCCCCCCCCC(=O)N[C@@H](COC1OC(CO)C(O)C(O)C1O)[C@H](O)[C@H](O)CCCCC (stereo partly drawn) [OCH] | high effectiveness | high effectiveness |  |  |  | 
2 | CCCCCCCCCCCCCCCCCCCCCCCCCC(=O)N[C@@H](COC1OC(CO)C(O)C(O)C1O)[C@H](O)[C@H](O)CCCCCCCCCCCCCC (stereo partly drawn) [α-GC, α-galactosyl ceramide] |  |  | not seen | caused | caused | caused
